Measurements taken from PubChem BioAssay AID2060900 (Molecular Pharmacology Branch, DTP, NCI, 2025).

System: 521955-158-R2-J5-PDC complex spheroids, viability
Assay: Anticancer human tumor 521955-158-R2-J5-PDC patient-derived pancreatic carcinoma cell line growth inhibition [RAS]
Conditions: for IC50: curve of first compound; for viability, T/C: stronger effect = lower value
Description: RAS pathway inhibitors in Combinations in Complex Spheroids
A high-throughput screen of multi-cell type tumor spheroids was designed to identify active combinations of RAS pathway inhibitors and targeted small molecules. Complex spheroids include a stromal component modeled by human endothelial cells (HUVEC) and fibroblasts modeled by human mesenchymal stem cells (MSCs). The concentration ranges selected for each drug and investigational agent were based upon clinically achievable concentrations if the clinical Cmax of the agent was known.
Compounds. The drugs and investigational agents: abemaciclib (NSC768073), cobimetinib (NSC768068), divarasib (GDC6063, NSC841802), docetaxel (NSC628503), GDC-1971 (RLY-1971, NSC841576), gemcitabine (NSC613327), inavolisib (NSC800729), ipatasertib (NSC767898), KB-0742 (NSC834161), MRTX-1133 (NSC836407), osimertinib (NSC779217), RMC-4630 (NSC839698), RMC-6236 (NSC851965), RMC-6291 (NSC852671), Ro-3306 (NSC812927), sapanisertib (NSC764658), SN-38 (NSC673596), staurosporine (NSC755774), SY5609 (NSC837396), and tovorafenib (DAY101, NSC766906), were obtained from the National Cancer Institute (NCI) Developmental Therapeutics Program Chemical Repository. The FDA-approved anticancer drug set is available from the NCI Developmental Therapeutics Program. […] The stock solutions were prepared in dimethyl sulfoxide (DMSO, Sigma-Aldrich, St. Louis, MO, cat. D2650) at 800-fold the tested concentration and stored at -70 degrees C prior to their use. All drugs and investigational agents were tested over a range starting from a high concentration at or near the clinical Cmax and decreasing in half-log increments. If the clinical Cmax for an agent had not been determined, the highest concentration tested was 10 microM.
Cell Culture. All cells were maintained in an incubator at 37 degrees C and 5% CO2 with 95% humidity. The PDC lines were cultured according to standard operating procedures established by the NCI PDMR. All PDCs were thawed and cultured in Matrigel-coated flasks prepared with a working solution of 1X Ham's F-12 nutrient mix, without supplementation (Invitrogen, Waltham, MA, cat. 11765054), 100 U/mL penicillin-streptomycin (Invitrogen, cat. 15140122), and 2.5% Matrigel (Corning Inc., Corning, NY, cat. 354248) for the first three passages. The 362531-283-R-J2-PDC and 782815-120-R-J1-PDC lines were cultured in 6C/Colon 1B media, which includes advanced DMEM/F-12 (Thermo Fisher Scientific, cat. 12634028), 10 mM HEPES (Thermo Fisher Scientific, cat. 15630080), 1X GlutaMAX supplement (Thermo Fisher Scientific, cat. 35050061), 0.1 mg/mL primocin (InvivoGen, San Diego, CA, cat. ant-pm-2), 10% defined fetal bovine serum, heat inactivated (HyClone Laboratories Inc., Logan, UT, cat. SH30070.03HI), 50% L-WRN conditioned media (ATCC, cat. CRL-3276), 1.25 mM N-Acetyl-L-cysteine (Sigma-Aldrich, cat. A9165), 10 mM nicotinamide (Sigma-Aldrich, cat. N0636), 1X B-27 supplement (Thermo Fisher Scientific, cat. 17504044), 1X N-2 supplement (Thermo Fisher Scientific, cat. 17502048), 50 ng/mL human EGF (Thermo Fisher Scientific, cat. PHG0311), and 10 microM Y-27632 dihydrochloride (Tocris Bioscience, cat. 1254). The K12877-001-R-J1-PDC line was cultured in 6I media, which includes all 6C/Colon 1B media plus 10 ng/mL human FGF-10 (PeproTech, cat. 100-26), 1 ng/mL human FGF-2 (PeproTech, cat. 100-18B), 1 µM prostaglandin E2 (Tocris Bioscience, cat. 2296), […] hydrocortisone (Sigma-Aldrich, cat. H4001), and […] bovine insulin (Sigma-Aldrich, cat. I6634). The K86415-001-R-J1-PDC line was cultured in 6D media, which includes all 6C/Colon 1B media components minus the L-WRN conditioned media. The 485176-168-R4-J1-PDC was cultured in PANC media, which includes all 6C/Colon 1B media plus 100 ng/mL human FGF-10 (PeproTech, cat. 100-26), 500 nM SB-431542 (Selleckchem, cat. S1067), and 10 nM gastrin (Tocris Bioscience, cat. 3006). […]

[1] = second compound 0.0316 µM, first compound 0.0316 µM
[2] = second compound 0.0316 µM, first compound 0.1 µM
[3] = second compound 0.0316 µM, first compound 0.316 µM
[4] = second compound 0.0316 µM, first compound 1 µM
[5] = second compound 0.0316 µM, first compound 3.16 µM
[6] = second compound 0.0316 µM, first compound 10 µM
[7] = second compound 0.1 µM, first compound 0.0316 µM
[8] = second compound 0.1 µM, first compound 0.1 µM
[9] = second compound 0.1 µM, first compound 0.316 µM
[10] = second compound 0.1 µM, first compound 1 µM
[11] = second compound 0.1 µM, first compound 3.16 µM
[12] = second compound 0.1 µM, first compound 10 µM
[13] = second compound 0.316 µM, first compound 0.0316 µM
[14] = second compound 0.316 µM, first compound 0.1 µM
[15] = second compound 0.316 µM, first compound 0.316 µM
[16] = second compound 0.316 µM, first compound 1 µM
[17] = second compound 0.316 µM, first compound 3.16 µM
[18] = second compound 0.316 µM, first compound 10 µM
[19] = second compound 1 µM, first compound 0.0316 µM
[20] = second compound 1 µM, first compound 0.1 µM
[21] = second compound 1 µM, first compound 0.316 µM
[22] = second compound 1 µM, first compound 1 µM
[23] = second compound 1 µM, first compound 3.16 µM
[24] = second compound 1 µM, first compound 10 µM
[25] = second compound 3.16 µM, first compound 0.0316 µM
[26] = second compound 3.16 µM, first compound 0.1 µM
[27] = second compound 3.16 µM, first compound 0.316 µM
[28] = second compound 3.16 µM, first compound 1 µM
[29] = second compound 3.16 µM, first compound 3.16 µM
[30] = second compound 3.16 µM, first compound 10 µM
[31] = second compound 10 µM, first compound 0.0316 µM
[32] = second compound 10 µM, first compound 0.1 µM
[33] = second compound 10 µM, first compound 0.316 µM
[34] = second compound 10 µM, first compound 1 µM
[35] = second compound 10 µM, first compound 3.16 µM
[36] = second compound 10 µM, first compound 10 µM
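Further: compound exposure lasted seven days before the viability read.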
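Wherever viability, T/C is given: spheroids also contain HUVEC endothelial cells and mesenchymal stem cells as stroma.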

Q: `Cc1nc(N2CCC3(CC2)COC(C)C3N)c(CO)nc1Sc1ccnc(N)c1Cl` (stereo unspecified) + C#Cc1c(F)ccc2cc(O)cc(-c3ncc4c(N5CC6CCC(C5)N6)nc(OCC56CCCN5CC(F)C6)nc4c3F)c12 was tested. Which IC50 (second compound 0.0316 µM) did it give?
A: 598 nM

Q: What about the IC50 (second compound 0.1 µM) of the same molecule?
A: 177 nM

Q: And the IC50 (second compound 0.316 µM)?
A: 115 nM

Q: What about the IC50 (second compound 1 µM) of the same molecule?
A: < 31.6 nM

Q: What about the IC50 (second compound 3.16 µM) of the same molecule?
A: < 31.6 nM

Q: And the IC50 (second compound 10 µM)?
A: < 31.6 nM

Q: What about the viability, T/C [1] of the same molecule?
A: 50.1%

Q: And the viability, T/C [2]?
A: 63.7%

Q: What about the viability, T/C [3] of the same molecule?
A: 60.6%

Q: And the viability, T/C [4]?
A: 43.5%

Q: What about the viability, T/C [5] of the same molecule?
A: 42.3%

Q: What about the viability, T/C [6] of the same molecule?
A: 37.4%

Q: And the viability, T/C [7]?
A: 61.1%

Q: And the viability, T/C [8]?
A: 58.3%

Q: What about the viability, T/C [9] of the same molecule?
A: 41.9%

Q: What about the viability, T/C [10] of the same molecule?
A: 37.6%

Q: What about the viability, T/C [11] of the same molecule?
A: 39.7%

Q: And the viability, T/C [12]?
A: 28.2%

Q: What about the viability, T/C [13] of the same molecule?
A: 63.1%

Q: What about the viability, T/C [14] of the same molecule?
A: 46.2%

Q: What about the viability, T/C [15] of the same molecule?
A: 44.1%

Q: And the viability, T/C [16]?
A: 37.7%

Q: And the viability, T/C [17]?
A: 27.2%

Q: And the viability, T/C [18]?
A: 24%

Q: And the viability, T/C [19]?
A: 45.3%

Q: And the viability, T/C [20]?
A: 42.9%

Q: What about the viability, T/C [21] of the same molecule?
A: 39.3%

Q: What about the viability, T/C [22] of the same molecule?
A: 30.7%

Q: What about the viability, T/C [23] of the same molecule?
A: 33.2%

Q: And the viability, T/C [24]?
A: 22.9%

Q: And the viability, T/C [25]?
A: 37.1%

Q: What about the viability, T/C [26] of the same molecule?
A: 39.7%

Q: What about the viability, T/C [27] of the same molecule?
A: 34.4%

Q: And the viability, T/C [28]?
A: 28.3%

Q: And the viability, T/C [29]?
A: 19%

Q: And the viability, T/C [30]?
A: 20.1%

Q: What about the viability, T/C [31] of the same molecule?
A: 48.7%

Q: And the viability, T/C [32]?
A: 28.2%

Q: And the viability, T/C [33]?
A: 21.3%

Q: What about the viability, T/C [34] of the same molecule?
A: 18.5%

Q: And the viability, T/C [35]?
A: 13.7%

Q: What about the viability, T/C [36] of the same molecule?
A: 5%

Q: What does the source list for `NC1c2ccccc2OC12CCN(c1cnc3c(N4CCCc5ncccc54)n[nH]c3n1)CC2` (stereo unspecified) + C#Cc1c(F)ccc2cc(O)cc(-c3ncc4c(N5CC6CCC(C5)N6)nc(OCC56CCCN5CC(F)C6)nc4c3F)c12?
A: IC50 (second compound 0.0316 µM): < 31.6 nM; IC50 (second compound 0.1 µM): 35.2 nM; IC50 (second compound 0.316 µM): < 31.6 nM; IC50 (second compound 1 µM): < 31.6 nM; IC50 (second compound 3.16 µM): < 31.6 nM; IC50 (second compound 10 µM): < 31.6 nM; viability, T/C [1]: 49.8%; viability, T/C [2]: 38.6%; viability, T/C [3]: 32.1%; viability, T/C [4]: 19.2%; viability, T/C [5]: 16.3%; viability, T/C [6]: 9.96%; viability, T/C [7]: 50.6%; viability, T/C [8]: 42.4%; viability, T/C [9]: 26.2%; viability, T/C [10]: 16.9%; viability, T/C [11]: 14.2%; viability, T/C [12]: 10.4%; viability, T/C [13]: 44%; viability, T/C [14]: 35.5%; viability, T/C [15]: 21.9%; viability, T/C [16]: 12.9%; viability, T/C [17]: 12.2%; viability, T/C [18]: 7.43%; viability, T/C [19]: 35%; viability, T/C [20]: 31.7%; viability, T/C [21]: 23.9%; viability, T/C [22]: 13.1%; viability, T/C [23]: 12.5%; viability, T/C [24]: 8.41%; viability, T/C [25]: 32.1%; viability, T/C [26]: 25.3%; viability, T/C [27]: 17.8%; viability, T/C [28]: 11.1%; viability, T/C [29]: 5.56%; viability, T/C [30]: 3.9%; viability, T/C [31]: 21.3%; viability, T/C [32]: 16%; viability, T/C [33]: 5.5%; viability, T/C [34]: 4.22%; viability, T/C [35]: 3.21%; viability, T/C [36]: 1.47%

Q: What does the source list for `Nc1ccn(C2OC(CO)C(O)C2(F)F)c(=O)n1` (stereo unspecified) + C#Cc1c(F)ccc2cc(O)cc(-c3ncc4c(N5CC6CCC(C5)N6)nc(OCC56CCCN5CC(F)C6)nc4c3F)c12?
A: IC50 (second compound 0.0316 µM): < 3.16 nM; IC50 (second compound 0.1 µM): < 3.16 nM; IC50 (second compound 0.316 µM): < 3.16 nM; IC50 (second compound 1 µM): 3.68 nM; IC50 (second compound 3.16 µM): < 3.16 nM; IC50 (second compound 10 µM): < 3.16 nM; viability, T/C (second compound 0.0316 µM, first compound 0.00316 µM): 48.8%; viability, T/C (second compound 0.0316 µM, first compound 0.01 µM): 39.5%; viability, T/C [1]: 32.6%; viability, T/C [2]: 24.9%; viability, T/C [3]: 24.1%; viability, T/C [4]: 18.5%; viability, T/C (second compound 0.1 µM, first compound 0.00316 µM): 44.5%; viability, T/C (second compound 0.1 µM, first compound 0.01 µM): 44.9%; viability, T/C [7]: 28.8%; viability, T/C [8]: 20.9%; viability, T/C [9]: 21%; viability, T/C [10]: 15.4%; viability, T/C (second compound 0.316 µM, first compound 0.00316 µM): 43.3%; viability, T/C (second compound 0.316 µM, first compound 0.01 µM): 42.9%; viability, T/C [13]: 28.8%; viability, T/C [14]: 23.4%; viability, T/C [15]: 17.4%; viability, T/C [16]: 17.8%; viability, T/C (second compound 1 µM, first compound 0.00316 µM): 52.4%; viability, T/C (second compound 1 µM, first compound 0.01 µM): 34.6%; viability, T/C [19]: 27.7%; viability, T/C [20]: 16.4%; viability, T/C [21]: 15.3%; viability, T/C [22]: 14%; viability, T/C (second compound 3.16 µM, first compound 0.00316 µM): 48.5%; viability, T/C (second compound 3.16 µM, first compound 0.01 µM): 41.6%; viability, T/C [25]: 27.5%; viability, T/C [26]: 20.8%; viability, T/C [27]: 15%; viability, T/C [28]: 13%; viability, T/C (second compound 10 µM, first compound 0.00316 µM): 35.9%; viability, T/C (second compound 10 µM, first compound 0.01 µM): 32.7%; viability, T/C [31]: 20.8%; viability, T/C [32]: 20.4%; viability, T/C [33]: 13.4%; viability, T/C [34]: 9.08%
